Structures can show the parent of a compound that is named as a salt. Where two headings read alike, the source gives them in different places.

For one assay, the target named is μ opioid receptors (Rattus norvegicus, UniProt P33535). Briefly: Opiate Binding Assay, displacement of 3[H]-DAMPGO from μ receptors.
Another assay concerns the target δ opioid receptors (Rattus norvegicus, UniProt P33533). Briefly: Opiate Binding Assay, displacement of 3[H]-DSLET from δ receptors. To be noted: for Mean IC50 μ/δ Ratio: ratio of mean IC50 values for μ and δ, above 1.0 = more δ specific.

Chain of δ opioid receptors (P33533 whole entry): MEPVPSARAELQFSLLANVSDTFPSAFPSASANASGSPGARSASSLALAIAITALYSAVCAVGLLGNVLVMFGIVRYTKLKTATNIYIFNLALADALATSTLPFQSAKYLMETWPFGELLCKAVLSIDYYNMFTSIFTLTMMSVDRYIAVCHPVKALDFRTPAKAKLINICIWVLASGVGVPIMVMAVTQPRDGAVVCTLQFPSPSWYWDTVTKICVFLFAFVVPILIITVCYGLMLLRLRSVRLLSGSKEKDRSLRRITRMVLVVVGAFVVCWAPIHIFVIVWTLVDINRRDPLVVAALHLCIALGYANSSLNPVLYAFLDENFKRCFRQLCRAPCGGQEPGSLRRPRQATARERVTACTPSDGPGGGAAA
Chain of μ opioid receptors (P33535 whole entry): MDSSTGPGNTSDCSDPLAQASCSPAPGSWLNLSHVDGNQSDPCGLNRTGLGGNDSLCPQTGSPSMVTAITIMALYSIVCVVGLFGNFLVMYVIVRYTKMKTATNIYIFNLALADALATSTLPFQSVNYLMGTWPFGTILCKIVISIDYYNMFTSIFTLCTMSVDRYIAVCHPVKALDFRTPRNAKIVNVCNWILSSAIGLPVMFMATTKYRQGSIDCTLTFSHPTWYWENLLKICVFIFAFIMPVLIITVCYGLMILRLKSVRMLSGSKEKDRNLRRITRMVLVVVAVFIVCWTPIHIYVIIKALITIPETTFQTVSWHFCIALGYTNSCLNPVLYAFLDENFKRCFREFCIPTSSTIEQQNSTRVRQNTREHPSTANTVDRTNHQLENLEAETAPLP

Regarding `Cc1cc(O)cc(C)c1C[C@H](NC(=O)OC(C)(C)C)C(=O)NC(C)(C)CN` [Example 4, 1,1-Dimethylethyl[1S-[[(2-amino-1,1-dimethylethyl)amino]carbonyl]-2-(4-hydroxy-2,6-dimethylphenyl)ethyl]carbamate], the IC50 (commonly the concentration needed to halve the response being measured) on μ opioid receptors (read-out: Mean IC50 Value, μ, rat forebrain membranes, 3[H]-DAMPGO 2.0 nM, 37° C., pH 7.4) was found to be 1000 nM; on δ opioid receptors (read-out: Mean IC50 Value, δ, rat forebrain membranes, 3[H]-DSLET 1.0 nM, 37° C., pH 7.4), 100 nM. Besides, on δ opioid receptors, the “Mean IC50 μ/δ Ratio” value turned out to be 10.

Turning to `CC(=O)N[C@@H](Cc1ccc(F)cc1)C(=O)NCC(C)(C)NC(=O)[C@@H](N)Cc1c(C)cc(O)cc1C` [Example 6, αS-(Acetylamino)-N-2-[2S-amino-3-(4-hydroxy-2,6-dimethylphenyl) -1-oxopropyl]amino]-2-methyloropyl]-4-fluorobenzenepropanamide, monohydrochloride], on μ opioid receptors, the IC50 was determined as 1.1 nM. For the same molecule, at δ opioid receptors, the IC50 stood at 1.8 nM and the “Mean IC50 μ/δ Ratio” value was determined as 0.6.

As for `Cc1cc(O)cc(C)c1C[C@H](N)C(=O)NC(C)(C)CNC(=O)[C@H](Cc1ccc(F)cc1)NC(=O)OCc1ccccc1` [Example 8, Phenylmethyl[1S-[[[2-[[2S-amino-3-(4-hydroxy-2,6-dimethylohenyl)-1-oxopropyllamino]-methylpropyl]amino]-carbonyl]-2-(4-fluorophenyl)ethyl]carbamate. monohydrochloride], the IC50 at μ opioid receptors was less than 10 nM; at δ opioid receptors it was 28 nM.

As for `Cc1cc(O)cc(C)c1C[C@H](NC(=O)OC(C)(C)C)C(=O)NC(C)(C)CNC(=O)[C@@H](N)Cc1ccccc1` [Example 11, acetic acid salt], the IC50 on μ opioid receptors was determined as 1000 nM. For the same molecule, at δ opioid receptors, the IC50 was 100 nM and the “Mean IC50 μ/δ Ratio” value was determined as 10.

For the molecule `Cc1cc(O)cc(C)c1C[C@H](N)C(=O)NC(C)(C)CNC(=O)[C@@H](N)Cc1ccccc1` [Example 12, αS-amino-N-[2-[2S-amino-3-(4-hydroxy-2,6-dimethylphenyl) -1-oxopropyl]amino]-2-methylpropyl]benzenepropanamide, dihydrochloride], the IC50 at μ opioid receptors stood at 3.4 nM. At δ opioid receptors, the IC50 turned out to be 31.4 nM and the “Mean IC50 μ/δ Ratio” value came to 0.1.

In turn, `Cc1cc(O)cc(C)c1C[C@H](N)C(=O)NC(C)(C)CNC(=O)[C@H](Cc1ccccc1)NC(=O)C(F)(F)F` [Example 14, αS-Amino-N-[1,1-dimethyl-2-[[1-oxo-3-phenyl-2S-[[trifluoroacetyl-amino]propyl]aminoethyl]-4-hydroxy-2,6-dimethylbenzenepropanamide, hydrochloride] came in with an IC50 at μ opioid receptors of 0.54 nM. Moreover, at δ opioid receptors, the IC50 came out at 0.64 nM and the “Mean IC50 μ/δ Ratio” value is reported as 0.8.

Take `CC(=O)N[C@H](C(=O)NCC(C)(C)NC(=O)[C@@H](N)Cc1c(C)cc(O)cc1C)c1ccccc1` [Example 20, N-[2-[[2S-(acetylamino)-2-phenylacetyl]amino]-1,1-dimethylethyl]-αS-amino-4-hydroxy-2,6-dimethylbenzenepropanamide, hydrochloride]: the IC50 at μ opioid receptors came out at 1.2 nM. On δ opioid receptors, the IC50 is 19.3 nM and the “Mean IC50 μ/δ Ratio” value was determined as 0.06.

`Cc1cc(O)cc(C)c1C[C@H](N)C(=O)NCCNC(=O)[C@H](Cc1ccccc1)NC(=O)OCc1ccccc1` [Example 22, Phenylmethyl[1S-[[(2-(8 [2S-amino-3-[4-hydroxy-2,6-dimethylphenyl) -1-oxopropyl]ethylaminocarbonyl-2-phenylethylcarbamate, monohydrochloride] yielded an IC50 on μ opioid receptors of 2.6 nM. Besides, at δ opioid receptors, the IC50 came to 3.1 nM and the “Mean IC50 μ/δ Ratio” value was 0.8.

In turn, `Cc1cc(O)cc(C)c1C[C@H](NC(=O)OC(C)(C)C)C(=O)NCCNC(=O)[C@@H](N)Cc1ccccc1` [Example 23, 1,1-dimethylethyl[1S-[[[2-[[(2S-amino-l-oxo-3-phenylpropyl)amino]ethyl]amino]carbonyl]-2-(4-hydroxy-2,6-dimethylohenyl)ethyl]carbamate, acetate (salt)] came in with an IC50 at μ opioid receptors of 1000 nM. Further, at δ opioid receptors, the IC50 was determined as 100 nM and the “Mean IC50 μ/δ Ratio” value worked out at 10.

For the molecule `Cc1cc(O)cc(C)c1C[C@H](N)C(=O)NCCNC(=O)[C@@H](N)Cc1ccccc1` [Example 24, αS-amino-N-[2-[[2S-amino-3-(4-hydroxy-2,6-dimethylphenyl) -1-oxopropyl]amino]ethyl]benzenepropanamide, dihydrochloride], the IC50 on μ opioid receptors was 3.7 nM. On δ opioid receptors, the IC50 worked out at 562 nM and the “Mean IC50 μ/δ Ratio” value worked out at 0.01.

With `Cc1cc(O)cc(C)c1C[C@H](N)C(=O)NCC(C)(C)NC(=O)[C@H](Cc1ccccc1)NC(=O)OCc1ccccc1` [Example 26, Phenylmethyl[1S-[[[2-[[2S-amino-3-(4-hydroxy-2,6-dimethylphenyl)-1-oxopropyl]amino]-1,1-dimethylethyl1-amino]carbonyl]-2-phenylethyl]carbamate, monohydrochloride], the IC50 at μ opioid receptors turned out to be 19 nM. Besides, on δ opioid receptors, the IC50 was determined as 29.8 nM and the “Mean IC50 μ/δ Ratio” value turned out to be 0.6.

On to `C=CCNC(=O)N[C@@H](Cc1ccccc1)C(=O)NCC(C)(C)NC(=O)[C@@H](N)Cc1c(C)cc(O)cc1C` [Example 28, αS-amino-N-[1,1-dimethyl-2-[1-oxo-3-phenyl-2S-[(2-propenylamino)carbonyl]amino]propyl]amino]ethyl]-4-hydroxy-2,6-dimethylbenzenepropanamide, monohydrochloride], for which the values for the IC50 on μ opioid receptors and at δ opioid receptors were less than 10 nM and approximately 2 nM, respectively.

Turning to `Cc1cc(O)c(C)c(C)c1C[C@H](N)C(=O)NC(C)(C)CNC(=O)[C@H](Cc1ccccc1)NC(=O)OCc1ccccc1` [Example 30, Phenylmethyl[1S[[[2-[[2S-amino-3-(4-hydroxy-2,3,6-trimethylphenyl)-1-oxopropyl]amino]-2-methylpropyl]amino]carbonyl]-2-phenylethyl]carbamate, hydrochloride], the IC50 at μ opioid receptors was less than 10 nM; at δ opioid receptors, 100 nM.

As to `Cc1cc(O)c(C)c(C)c1C[C@@H](N)C(=O)NC(C)(C)CNC(=O)[C@H](Cc1ccccc1)NC(=O)OCc1ccccc1` [Example 31, Phenylmethyl[1S[[[2-[[2R-amino-3-(4-hydroxy-2,3,6-trimethylphenyl) -1-oxopropyl]amino]-2-methylpropyl]amino]carbonyl1-2-phenylethyl]carbamate, hydrochloride], the IC50 at μ opioid receptors was 100 nM; at δ opioid receptors, more than 100 nM.

Turning to `Cc1cc(O)cc(C)c1C[C@H](N)C(=O)NC(C)(C)CNC(=O)[C@H](Cc1ccccc1)NC(=O)NCc1ccccc1` [Example 33, αS-amino-N-[1,1-dimethyl-2-[[1-oxo-3-phenyl-2S-[[[(phenylmethyl)amino]carbonyl]amino]propyl]-amino]ethyl]-4-hydroxy-2,6-dimethylbenzeneprooanamide, hydrochloride], the IC50 on μ opioid receptors was less than 10 nM; on δ opioid receptors it was approximately 2 nM.

On to `CC(=O)N[C@@H](Cc1c(C)cccc1C)C(=O)NCCNC(=O)[C@@H](N)Cc1ccc(O)cc1` [Example 51, αS-(Acetylamino)-N-[2-[[2S-amino-3-(4-hydroxyphenyl)-1-oxopropyl]amino]ethyl]-2,6-dimethylbenzenepropanamide. hydrochloride], for which the IC50 at δ opioid receptors is more than 50 nM.

Consider `CC(=O)N[C@@H](Cc1ccccc1)C(=O)Nc1cccc(NC(=O)[C@@H](N)Cc2c(C)cc(O)cc2C)c1` [Example 57, αS-(Acetylamino)-N-[3[[[2S-amino-3-[4-hydroxy-2,6-dimethylphenyl]-1-oxopropylamino]phenyl]benzenepropanamide, hydrochloride], for which the IC50 on δ opioid receptors worked out at 100 nM.

For the origin of these results see patent US5272175A, “Substituted tyrosyl diamide compounds” (priority 1992, dated 1993).
